Reference: patent US8426202B2, “Cell culture medium” (Cellca GmbH, priority 2005, dated 2013)
Several values for one entry are separate records, joined by “and”; a condition that tells them apart may be missing. Equal entries are not always repeated.

Key:
[1] = test system: CHO cell line that expresses an antibody; assay: Batch experiment with the substances according to the invention (Example 1); assay type: cell-based, Chinese hamster; conditions: batch mode, substance 0.5-1 g/l, basal medium glucose 4.7 g/l, glutamine […]
Protocol: Cells were stored in the gas phase of liquid nitrogen. One to two ampoules were thawed in nutrient medium preheated to 37° C. and transferred to spinner bottles, shaking flasks or T-bottles. In the first few days of cultivation the medium was changed, depending on the clone.
Depending on the clone, cells were split either every second day or every third day or after two and three days alternately into new medium, i.e. a portion of the cell suspension was removed from culture and a smaller portion of the cell suspension was reused as inoculum for the next culture. This inoculum was made up with fresh prewarmed nutrient medium. Cells were incubated at 37° C. in an incubator with a CO2 atmosphere. An alternative for incubating cells was cultivation in an incubation chamber at 37° C., in this way cells were held in culture for several passages. A passage means a cultivation time of two to three days. At various points of time, cell suspension was taken from strain maintenance and used as inoculum for experiments. The experiments were carried out in various cultivation systems, for example in spinner bottles, T-bottles, shaking flasks, culture tubes or in controlled bioreactors.
(§1) Feed took place at regular intervals.

[2] = test system: CHO cell line that expresses an antibody; assay: Fed-batch experiment with the substances according to the invention (Example 2, Table 2); assay type: cell-based, Chinese hamster; parameters: Viabil.: concentration or dose not given beside the values
Source text: as §1

## O=C(O)CCCCC(=O)O [Adipic acid]
[1]; day 0
  Gln: 1.53 mM
  Glucose: 4.69 g/L
  Lactate: 0 g/L
  NH4: 1.22 mM
  Specific Glutamin consumption (Gln/VCD): 1.49
  Specific ammonia production (NH4/VCD): 1.18
  Specific glucose consumption (Gluc/VCD): 4.55
  Specific lactate production (Lac/VCD): 0.00
  Total Cell Density TCD: 1.07 E5/ml
  Viabil.: 96%
  Viable Cell Density (VCD): 1.03 E5/ml
[1]; day 3
  Gln: 0.86 mM
  Glucose: 4.28 g/L
  Lactate: 0.62 g/L
  NH4: 1.81 mM
  Specific Glutamin consumption (Gln/VCD): 0.12
  Specific ammonia production (NH4/VCD): 0.25
  Specific glucose consumption (Gluc/VCD): 0.60
  Specific lactate production (Lac/VCD): 0.09
  Total Cell Density TCD: 7.2 E5/ml
  Viabil.: 99%
  Viable Cell Density (VCD): 7.1 E5/ml
[1]; day 6
  Gln: 0.22 mM
  Glucose: 2.95 g/L
  Lactate: 0.93 g/L
  NH4: 2.67 mM
  Specific Glutamin consumption (Gln/VCD): 0.01
  Specific ammonia production (NH4/VCD): 0.07
  Specific glucose consumption (Gluc/VCD): 0.07
  Specific lactate production (Lac/VCD): 0.02
  Total Cell Density TCD: 41.6 E5/ml
  Viabil.: 98%
  Viable Cell Density (VCD): 40.6 E5/ml
[1]; day 8
  Gln: 0.32 mM
  Glucose: 1.94 g/L
  Lactate: 0.95 g/L
  NH4: 3 mM
  Specific Glutamin consumption (Gln/VCD): 0.02
  Specific ammonia production (NH4/VCD): 0.20
  Specific glucose consumption (Gluc/VCD): 0.13
  Specific lactate production (Lac/VCD): 0.06
  Total Cell Density TCD: 17.1 E5/ml
  Viabil.: 87%
  Viable Cell Density (VCD): 14.9 E5/ml
[1]; day 11
  Gln: 0.49 mM
  Glucose: 0.89 g/L
  Lactate: 1.28 g/L
  NH4: 3.38 mM
  Specific Glutamin consumption (Gln/VCD): 0.05
  Specific ammonia production (NH4/VCD): 0.32
  Specific glucose consumption (Gluc/VCD): 0.08
  Specific lactate production (Lac/VCD): 0.12
  Total Cell Density TCD: 23 E5/ml
  Viabil.: 46%
  Viable Cell Density (VCD): 10.6 E5/ml
[2]; day 0, fed-batch
  Total Cell Density TCD: 1.5 E5/ml
  Viabil.: 91%
  Viable Cell Density (VCD): 1.37 E5/ml
[2]; day 2, fed-batch
  Total Cell Density TCD: 4.4 E5/ml
  Viabil.: 98%
  Viable Cell Density (VCD): 4.3 E5/ml
[2]; day 5, fed-batch
  Total Cell Density TCD: 12 E5/ml and 11.8 E5/ml
  Viabil.: 98% and 95%
  Viable Cell Density (VCD): 11.7 E5/ml and 11.2 E5/ml
[2]; day 8, fed-batch
  Total Cell Density TCD: 40 E5/ml and 36.3 E5/ml
  Viabil.: 91% and 92%

## NC(=O)NCCC[C@H](N)C(=O)O [Citrulline]
[1]; day 0
  Gln: 1.53 mM
  Glucose: 4.69 g/L
  Lactate: 0 g/L
  NH4: 1.22 mM
  Specific Glutamin consumption (Gln/VCD): 1.49
  Specific ammonia production (NH4/VCD): 1.18
  Specific glucose consumption (Gluc/VCD): 4.55
  Specific lactate production (Lac/VCD): 0.00
  Total Cell Density TCD: 1.07 E5/ml
  Viabil.: 96%
  Viable Cell Density (VCD): 1.03 E5/ml
[1]; day 3
  Gln: 0.82 mM
  Glucose: 4.14 g/L
  Lactate: 0.83 g/L
  NH4: 1.87 mM
  Specific Glutamin consumption (Gln/VCD): 0.11
  Specific ammonia production (NH4/VCD): 0.25
  Specific glucose consumption (Gluc/VCD): 0.55
  Specific lactate production (Lac/VCD): 0.11
  Total Cell Density TCD: 7.7 E5/ml
  Viabil.: 97%
  Viable Cell Density (VCD): 7.5 E5/ml
[1]; day 6
  Gln: 0.27 mM
  Glucose: 2.62 g/L
  Lactate: 1.16 g/L
  NH4: 2.66 mM
  Specific Glutamin consumption (Gln/VCD): 0.01
  Specific ammonia production (NH4/VCD): 0.07
  Specific glucose consumption (Gluc/VCD): 0.07
  Specific lactate production (Lac/VCD): 0.03
  Total Cell Density TCD: 39.6 E5/ml
  Viabil.: 96%
  Viable Cell Density (VCD): 37.9 E5/ml
[1]; day 8
  Gln: 0.37 mM
  Glucose: 1.7 g/L
  Lactate: 1.12 g/L
  NH4: 2.86 mM
  Specific Glutamin consumption (Gln/VCD): 0.03
  Specific ammonia production (NH4/VCD): 0.20
  Specific glucose consumption (Gluc/VCD): 0.12
  Specific lactate production (Lac/VCD): 0.08
  Total Cell Density TCD: 17.8 E5/ml
  Viabil.: 82%
  Viable Cell Density (VCD): 14.6 E5/ml
[1]; day 11
  Gln: 0.51 mM
  Glucose: 0.7 g/L
  Lactate: 1.48 g/L
  NH4: 3.26 mM
  Specific Glutamin consumption (Gln/VCD): 0.06
  Specific ammonia production (NH4/VCD): 0.40
  Specific glucose consumption (Gluc/VCD): 0.09
  Specific lactate production (Lac/VCD): 0.18
  Total Cell Density TCD: 21.3 E5/ml
  Viabil.: 38%
  Viable Cell Density (VCD): 8.2 E5/ml
